{"source": "patent US20240165097A1", "about": "“PHARMACEUTICAL COMPOSITION FOR THE TREATMENT OF ALZHEIMER'S DISEASE OR DEMENTIA” (Heptares Therapeutics Limited, priority 2021, published 2024)", "assay": "Example D: HTL0018318 plasma pharmacokinetics", "type": "in vivo, human", "experimental": "Selected plasma pharmacokinetics (PK) parameters for HTL0018318 were estimated during the period over which PD assessments were made. Details of assessment times for all endpoints are described below.\nPharmacokinetics (PK) were evaluated via blood samples, for determination of HTL0018318 concentrations in plasma. Blood samples were collected during clinic visits before morning dose administration and 1, 2, and 4 hours after dose administration, on Day 1, Day 6, Day 11, Day 16, Day 28, and Day 35 (follow-up visit). Bioanalysis used a fully validated method and all samples were analysed within the established period of storage stability. Validated Phoenix® WinNonlin® Version 6.4 was used to derive PK parameters.\nAll safety analyses used the safety set (SAF; randomised dose). The SAF (randomised dose) included all randomised patients who received at least one dose of the study drug; treatment group assignment was based on the initial randomised dose. All efficacy analyses were considered exploratory and used the full analysis set (FAS). The FAS included all randomised patients with at least one post-baseline efficacy measurement; treatment group assignment was based on the initial randomised dose. All summaries and analyses of PK data used the pharmacokinetic set (PKS). The PKS included all randomised patients with valid PK assessments; treatment group assignment was based on actual dose received.", "note": "“Also recorded” adds a separate entry of the source. Where two headings read alike, the source gives them in different places.", "data": [{"smiles": "CCOC(=O)N1C2CCC1CC(N1CCC3(CC1)CNC(=O)C3)C2", "note": "(stereo not drawn) [HTL0018318, ethyl 3-(3-oxo-2,8-diazaspiro[4.5]dec-8-yl)-8-azabicyclo[3.2.1]octane-8-carboxylate]", "values": [{"measurement": "Ctrough, arithmetic mean ± SD", "setting": "5 mg, visit day 6", "result": "14.2 ± 12.1", "unit": "ng/mL"}, {"measurement": "Ctrough, arithmetic mean ± SD", "setting": "5 mg, visit day 11", "result": "13.7 ± 10.3", "unit": "ng/mL"}, {"measurement": "Ctrough, arithmetic mean ± SD", "setting": "10 mg, visit day 6", "result": "7.55 ± 4.72", "unit": "ng/mL"}, {"measurement": "Ctrough, mean", "setting": "10 mg, visit day 11, n = 2", "result": 5.47, "unit": "ng/mL"}, {"measurement": "Ctrough, arithmetic mean ± SD", "setting": "15 mg, visit day 6", "result": "19.0 ± 25.7", "unit": "ng/mL"}, {"measurement": "Ctrough, arithmetic mean ± SD", "setting": "15 mg, visit day 11", "result": "27.9 ± 40.7", "unit": "ng/mL"}, {"measurement": "Cmax, arithmetic mean ± SD", "setting": "25 mg, visit day 28", "result": "223 ± 134", "unit": "ng/mL"}, {"measurement": "dose-exposure proportionality (Cmax, AUC0-4 h)", "setting": "5-25 mg", "result": "Dose-exposure proportionality was confirmed; also recorded: increased proportionally across 5-25 mg doses"}, {"measurement": "steady-state achieved with daily dosing", "setting": "any given dose level", "result": 5, "unit": "days"}, {"measurement": "AUC(0-t)", "setting": "human, plasma, 5 mg, visit day 1, read-out: AUC0-4 h, arithmetic mean ± SD", "result": "113 ± 57.6", "unit": "ng·h/mL"}, {"measurement": "Cmax", "setting": "human, plasma, 5 mg, visit day 1, read-out: Cmax, arithmetic mean ± SD", "result": "40.3 ± 24.4", "unit": "ng/mL"}, {"measurement": "AUC(0-t)", "setting": "human, plasma, 5 mg, visit day 6, read-out: AUC0-4 h, arithmetic mean ± SD", "result": "146 ± 53.1", "unit": "ng·h/mL"}, {"measurement": "Cmax", "setting": "human, plasma, 5 mg, visit day 6, read-out: Cmax, arithmetic mean ± SD", "result": "50.5 ± 15.6", "unit": "ng/mL"}, {"measurement": "AUC(0-t)", "setting": "human, plasma, 5 mg, visit day 11, read-out: AUC0-4 h, arithmetic mean ± SD", "result": "149 ± 70.6", "unit": "ng·h/mL"}, {"measurement": "Cmax", "setting": "human, plasma, 5 mg, visit day 11, read-out: Cmax, arithmetic mean ± SD", "result": "48.3 ± 19.6", "unit": "ng/mL"}, {"measurement": "AUC(0-t)", "setting": "human, plasma, 5 mg, visit day 16, read-out: AUC0-4 h, arithmetic mean ± SD", "result": "132 ± 56.2", "unit": "ng·h/mL"}, {"measurement": "Cmax", "setting": "human, plasma, 5 mg, visit day 16, read-out: Cmax, arithmetic mean ± SD", "result": "46.4 ± 18.9", "unit": "ng/mL"}, {"measurement": "AUC(0-t)", "setting": "human, plasma, 5 mg, visit day 28, read-out: AUC0-4 h, arithmetic mean ± SD", "result": 144, "unit": "ng·h/mL"}, {"measurement": "Cmax", "setting": "human, plasma, 5 mg, visit day 28, read-out: Cmax, arithmetic mean ± SD", "result": 51.8, "unit": "ng/mL"}, {"measurement": "AUC(0-t)", "setting": "human, plasma, 10 mg, visit day 6, read-out: AUC0-4 h, arithmetic mean ± SD", "result": "244 ± 88", "unit": "ng·h/mL"}, {"measurement": "Cmax", "setting": "human, plasma, 10 mg, visit day 6, read-out: Cmax, arithmetic mean ± SD", "result": "82.4 ± 31.6", "unit": "ng/mL"}, {"measurement": "AUC(0-t)", "setting": "human, plasma, 10 mg, visit day 11, n = 2, read-out: AUC0-4 h, mean [minimum, maximum]", "result": 231, "unit": "ng·h/mL"}, {"measurement": "Cmax", "setting": "human, plasma, 10 mg, visit day 11, read-out: Cmax, arithmetic mean ± SD", "result": "69.7 ± 33.6", "unit": "ng/mL"}, {"measurement": "AUC(0-t)", "setting": "human, plasma, 10 mg, visit day 16, n = 1, read-out: AUC0-4 h", "result": 302, "unit": "ng·h/mL"}, {"measurement": "Cmax", "setting": "human, plasma, 10 mg, visit day 16, n = 1, read-out: Cmax", "result": 87.5, "unit": "ng/mL"}, {"measurement": "AUC(0-t)", "setting": "human, plasma, 10 mg, visit day 28, n = 1, read-out: AUC0-4 h", "result": 222, "unit": "ng·h/mL"}, {"measurement": "Cmax", "setting": "human, plasma, 10 mg, visit day 28, n = 1, read-out: Cmax", "result": 89, "unit": "ng/mL"}, {"measurement": "AUC(0-t)", "setting": "human, plasma, 15 mg, visit day 6, read-out: AUC0-4 h, arithmetic mean ± SD", "result": "315 ± 163", "unit": "ng·h/mL"}, {"measurement": "Cmax", "setting": "human, plasma, 15 mg, visit day 6, read-out: Cmax, arithmetic mean ± SD", "result": "106 ± 54", "unit": "ng/mL"}, {"measurement": "AUC(0-t)", "setting": "human, plasma, 15 mg, visit day 11, read-out: AUC0-4 h, arithmetic mean ± SD", "result": "379 ± 77.5", "unit": "ng·h/mL"}, {"measurement": "Cmax", "setting": "human, plasma, 15 mg, visit day 11, read-out: Cmax, arithmetic mean ± SD", "result": "126 ± 29.3", "unit": "ng/mL"}, {"measurement": "AUC(0-t)", "setting": "human, plasma, 15 mg, visit day 16, read-out: AUC0-4 h, arithmetic mean ± SD", "result": "422 ± 94.5", "unit": "ng·h/mL"}, {"measurement": "Cmax", "setting": "human, plasma, 15 mg, visit day 16, read-out: Cmax, arithmetic mean ± SD", "result": "136 ± 31.4", "unit": "ng/mL"}, {"measurement": "AUC(0-t)", "setting": "human, plasma, 15 mg, visit day 28, read-out: AUC0-4 h, arithmetic mean ± SD", "result": 368, "unit": "ng·h/mL"}, {"measurement": "Cmax", "setting": "human, plasma, 15 mg, visit day 28, read-out: Cmax, arithmetic mean ± SD", "result": 123, "unit": "ng/mL"}, {"measurement": "AUC(0-t)", "setting": "human, plasma, 25 mg, visit day 11, read-out: AUC0-4 h, arithmetic mean ± SD", "result": "650 ± 302", "unit": "ng·h/mL"}, {"measurement": "Cmax", "setting": "human, plasma, 25 mg, visit day 11, read-out: Cmax, arithmetic mean ± SD", "result": "222 ± 102", "unit": "ng/mL"}, {"measurement": "AUC(0-t)", "setting": "human, plasma, 25 mg, visit day 16, read-out: AUC0-4 h, arithmetic mean ± SD", "result": "728 ± 359", "unit": "ng·h/mL"}, {"measurement": "Cmax", "setting": "human, plasma, 25 mg, visit day 16, read-out: Cmax, arithmetic mean ± SD", "result": "243 ± 108", "unit": "ng/mL"}, {"measurement": "AUC(0-t)", "setting": "human, plasma, 25 mg, visit day 28, read-out: AUC0-4 h, arithmetic mean ± SD", "result": 668, "unit": "ng·h/mL"}, {"measurement": "Cmax", "setting": "human, plasma, 25 mg, visit day 28, read-out: Cmax, arithmetic mean ± SD", "result": 224, "unit": "ng/mL"}, {"measurement": "concentration at 16 day", "setting": "human, plasma, 5 mg, visit day 16, read-out: Ctrough, arithmetic mean ± SD", "result": "14.1 ± 10.8", "unit": "ng/mL"}, {"measurement": "concentration at 28 day", "setting": "human, plasma, 5 mg, visit day 28, read-out: Ctrough, arithmetic mean ± SD", "result": "14.2 ± 12.3", "unit": "ng/mL"}, {"measurement": "concentration at 16 day", "setting": "human, plasma, 10 mg, visit day 16, n = 1, read-out: Ctrough", "result": 8.25, "unit": "ng/mL"}, {"measurement": "concentration at 28 day", "setting": "human, plasma, 10 mg, visit day 28, n = 1, read-out: Ctrough", "result": 6.41, "unit": "ng/mL"}, {"measurement": "concentration at 16 day", "setting": "human, plasma, 15 mg, visit day 16, read-out: Ctrough, arithmetic mean ± SD", "result": "29.4 ± 38.5", "unit": "ng/mL"}, {"measurement": "concentration at 28 day", "setting": "human, plasma, 15 mg, visit day 28, read-out: Ctrough, arithmetic mean ± SD", "result": "23.2 ± 16", "unit": "ng/mL"}, {"measurement": "concentration at 11 day", "setting": "human, plasma, 25 mg, visit day 11, read-out: Ctrough, arithmetic mean ± SD", "result": "22.2 ± 21.8", "unit": "ng/mL"}, {"measurement": "concentration at 16 day", "setting": "human, plasma, 25 mg, visit day 16, read-out: Ctrough, arithmetic mean ± SD", "result": "66.7 ± 80.4", "unit": "ng/mL"}, {"measurement": "concentration at 28 day", "setting": "human, plasma, 25 mg, visit day 28, read-out: Ctrough, arithmetic mean ± SD", "result": "40.3 ± 30.6", "unit": "ng/mL"}, {"measurement": "Tmax", "setting": "human, plasma, all doses, read-out: Tmax (median)", "result": "1 to 2", "unit": "h"}]}]}
